The text below walks through data of the Kinase Knowledgebase extract (Sharma et al. 2016).

Some results are limits rather than exact numbers.

For this assay, the target named is MAPK14 (human) (UniProt Q16539). Description: Cell-Based Assay. Conditions: hct-116.
MAPK14 (human), sequence (Q16539 whole entry, looked up): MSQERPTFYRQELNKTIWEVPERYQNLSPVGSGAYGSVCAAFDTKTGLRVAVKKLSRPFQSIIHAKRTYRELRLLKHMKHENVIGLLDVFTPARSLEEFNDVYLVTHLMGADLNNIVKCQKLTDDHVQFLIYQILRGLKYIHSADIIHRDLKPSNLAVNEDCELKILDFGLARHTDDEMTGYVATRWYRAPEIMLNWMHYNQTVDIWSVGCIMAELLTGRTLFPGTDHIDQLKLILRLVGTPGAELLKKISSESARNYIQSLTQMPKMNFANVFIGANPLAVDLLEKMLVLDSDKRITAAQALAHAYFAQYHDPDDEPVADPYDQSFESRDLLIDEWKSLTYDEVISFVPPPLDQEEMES
By IC50 is commonly meant the midpoint of a concentration-inhibition curve. A high value points to weaker potency. Turning to `CC(=O)N1CCC(n2cc(-c3cnc(N)c4oc(-c5cccc6nnsc56)cc34)cn2)CC1`, the half-maximal inhibitory concentration (IC50) is not above 100 nM.
In the case of `CC(=O)N1CCC(n2cc(-c3cnc(N)c4oc(-c5cccc(C#N)c5)cc34)cn2)CC1`, the 50% inhibitory concentration (IC50) lay in the range of 100 to 1000 nM.
To `CCN1CCC(n2cc(-c3cnc(N)c4oc(-c5cccc6cnccc56)cc34)cn2)CC1` belongs 100 to 1000 nM.
To `CC(=O)N1CCC(n2cc(-c3cnc(N)c4oc(-c5ccc(S(C)(=O)=O)cc5)cc34)cn2)CC1` belongs more than 10000 nM; to `CC(=O)N1CCC(n2cc(-c3cnc(N)c4oc(-c5ccc6ncn(C)c6c5)cc34)cn2)CC1`, more than 10000 nM.
`Cn1cc(-c2cnc(N)c3oc(-c4c[nH]c5cnccc45)cc23)cn1`: the IC50 was 100 to 1000 nM.
The value for `Nc1ncc(-c2cnn(C3CCNCC3)c2)c2cc(-c3ccc4[nH][nH]c(=O)c4c3)oc12` was more than 10000 nM.
The value for `CC(=O)N1CCC(n2cc(-c3cnc(N)c4oc(-c5cccc6cnccc56)cc34)cn2)CC1` was 100 to 1000 nM.
The value for `Nc1ncc(-c2cnn(C3CCNCC3)c2)c2cc(-c3csc4cnccc34)oc12` was 100 to 1000 nM.
Turning to `CC(=O)N1CCC(n2cc(-c3cnc(N)c4oc(-c5cccc([N+](=O)[O-])c5C)cc34)cn2)CC1`, the IC50 lay within 100 to 1000 nM.
For `Nc1ncc(-c2cnn(C3CCNCC3)c2)c2cc(-c3cccc4cnccc34)oc12`, the half-inhibitory concentration (IC50) was in the range of 100 to 1000 nM.
For the compound `C[C@]1(O)CC[C@@H](n2cc(-c3cnc(N)c4oc(-c5cccc6cnccc56)cc34)cn2)CC1`, the IC50 fell in the range of 100 to 1000 nM.
The compound `Nc1ncc(-c2cnn([C@H]3CC[C@H](O)CC3)c2)c2cc(-c3cccc4cnccc34)oc12` came in with an IC50 of 100 to 1000 nM.
Compound `Nc1ncc(-c2cnn(C3CCN(CCF)CC3)c2)c2cc(-c3cccc4cnccc34)oc12` showed an IC50 of 100 to 1000 nM.
The value for `CNc1ncc(-c2cnn([C@H]3CC[C@H](O)CC3)c2)c2cc(-c3csc4cnccc34)oc12` was not above 100 nM; that for `Nc1ncc(-c2cnn([C@H]3CC[C@H](O)CC3)c2)c2cc(-c3csc4cnc(F)cc34)oc12` was not above 100 nM; that for `CCSc1ccccc1-c1cc2c(-c3cnn(C4CCN(C(C)=O)CC4)c3)cnc(N)c2o1` was 100 to 1000 nM.
To `Nc1ncc(-c2cnn([C@H]3CC[C@H](O)CC3)c2)c2cc(-c3ccc(F)c4cnsc34)oc12` belongs 100 to 1000 nM; to `CC(C)C(=O)N1CCC(n2cc(-c3cnc(N)c4oc(-c5cccc6cnccc56)cc34)cn2)CC1`, not above 100 nM.
The value for `CC(=O)N1CCC(n2cc(-c3cnc(N)c4oc(-c5cccc([N+](=O)[O-])c5)cc34)cn2)CC1` was 100 to 1000 nM; that for `CC(=O)N1CCC(n2cc(-c3cnc(N)c4oc(-c5ccc6[nH]ccc6c5)cc34)cn2)CC1` was 100 to 1000 nM.
Consider `Cn1cc(-c2cnc(N)c3oc(-c4cccc5cnccc45)cc23)cn1`, for which the IC50 lay in the range of 100 to 1000 nM.
The value for `Nc1ncc(-c2cnn(C3CNC3)c2)c2cc(-c3csc4cnccc34)oc12` was 100 to 1000 nM; that for `CC(=O)N1CCC(n2cc(-c3cnc(N)c4oc(-c5ccc(O)cc5)cc34)cn2)CC1` was 100 to 1000 nM.
To `Nc1ncc(-c2cnn(C3CCN(CC(F)(F)F)CC3)c2)c2cc(-c3cccc4cnccc34)oc12` belongs 100 to 1000 nM; to `CC(=O)N1CCC(n2cc(-c3cnc(N)c4oc(-c5cncc6cnsc56)cc34)cn2)CC1`, 100 to 1000 nM.
To `CC(C)(C)OC(=O)N1CCC(n2cc(-c3cnc(N)c4oc(-c5csc6cnccc56)cc34)cn2)CC1` belongs 100 to 1000 nM; to `CS(=O)(=O)N1CCC(n2cc(-c3cnc(N)c4oc(-c5cccc6cnccc56)cc34)cn2)CC1`, 100 to 1000 nM.
`Nc1ncc(-c2cnn([C@H]3CC[C@H](O)CC3)c2)c2cc(-c3cc(F)cc4cnsc34)oc12`: the IC50 was 100 to 1000 nM.
With `Nc1ncc(-c2cnn([C@H]3CC[C@H](O)CC3)c2)c2cc(-c3c(F)ccc4cnsc34)oc12`, the IC50 lay in the range of 100 to 1000 nM.
Compound `CC(=O)N1CCC(n2cc(-c3cnc(N)c4oc(-c5cccc6cnsc56)cc34)cn2)CC1` showed an IC50 not above 100 nM.
To `Nc1ncc(-c2cnn(C3CCNCC3)c2)c2cc(-c3ccc4[nH]ncc4c3)oc12` belongs 100 to 1000 nM.
The value for `COCC(=O)N1CCC(n2cc(-c3cnc(N)c4oc(-c5cccc6cnccc56)cc34)cn2)CC1` was 100 to 1000 nM; that for `CC(=O)N1CCC(n2cc(-c3cnc(N)c4oc(-c5ccc6[nH]nc(C#N)c6c5)cc34)cn2)CC1` was more than 10000 nM.
For the compound `CC(=O)N1CCC(n2cc(-c3cnc(N)c4oc(-c5c[nH]c6cc(F)ccc56)cc34)cn2)CC1`, the IC50 was 100 to 1000 nM.
To `Nc1ncc(-c2cnn([C@H]3CC[C@H](O)CC3)c2)c2cc(-c3cccc4cnsc34)oc12` belongs 100 to 1000 nM; to `CC(=O)N1CCC(n2cc(-c3cnc(N)c4oc(-c5csc6ccccc56)cc34)cn2)CC1`, 100 to 1000 nM.
The value for `Cc1sc2cnccc2c1-c1cc2c(-c3cnn([C@H]4CC[C@H](O)CC4)c3)cnc(N)c2o1` was 100 to 1000 nM; that for `Nc1ncc(-c2cn[nH]c2)c2cc(-c3cccc4cnccc34)oc12` was 100 to 1000 nM; that for `CC(=O)N1CCC(n2cc(-c3cnc(N)c4oc(-c5ccc6scnc6c5)cc34)cn2)CC1` was 100 to 1000 nM.
The value for `CC(=O)N1CCC(n2cc(-c3cnc(N)c4oc(-c5ccc6c(c5)CNC6=O)cc34)cn2)CC1` was more than 10000 nM; that for `CC(=O)N1CC(n2cc(-c3cnc(N)c4oc(-c5csc6cnccc56)cc34)cn2)C1` was 100 to 1000 nM.
The compound `COCCN1CCC(n2cc(-c3cnc(N)c4oc(-c5cccc6cnccc56)cc34)cn2)CC1` came in with an IC50 of 100 to 1000 nM.
The compound `Nc1ncc(-c2cnn([C@H]3CC[C@H](O)CC3)c2)c2cc(-c3cccc4nnsc34)oc12` yielded an IC50 not above 100 nM.
Consider `Nc1ncc(-c2cnn(C3CCN(CCO)CC3)c2)c2cc(-c3cccc4cnccc34)oc12`, for which the IC50 was 100 to 1000 nM.
To `CC(=O)N1CCC(n2cc(-c3cnc(N)c4oc(-c5ccc6c(c5)C(=O)NC6)cc34)cn2)CC1` belongs more than 10000 nM; to `CC(=O)N1CCC(n2cc(-c3cnc(N)c4oc(-c5cccn6ccnc56)cc34)cn2)CC1`, 100 to 1000 nM.
`CC(=O)N1CCC(n2cc(-c3cnc(N)c4oc(-c5cccc(O)c5)cc34)cn2)CC1` came in with an IC50 of 100 to 1000 nM.
Compound `Nc1ncc(-c2cnn(C3CCN(C(=O)C4CC4)CC3)c2)c2cc(-c3cccc4cnccc34)oc12` returned an IC50 of 100 to 1000 nM.
In turn, `Cn1cc(-c2cnc(N)c3oc(-c4csc5cnccc45)cc23)cn1` displayed an IC50 of 100 to 1000 nM.
The value for `Nc1ncc(-c2cnn([C@H]3CC[C@H](O)CC3)c2)c2cc(-c3cncc4cnsc34)oc12` was 100 to 1000 nM.
Consider `CC(=O)N1CCC(n2cc(-c3cnc(N)c4oc(-c5cn[nH]c5)cc34)cn2)CC1`, for which the IC50 was more than 10000 nM.
The value for `CC(C)n1cc(-c2cnc(N)c3oc(-c4c[nH]c5cnccc45)cc23)cn1` was not above 100 nM.
To `CC(=O)N1CCC(n2cc(-c3cnc(N)c4oc(-c5ccc6[nH]nnc6c5)cc34)cn2)CC1` belongs more than 10000 nM; to `CC(=O)N1CCC(n2cc(-c3cnc(N)c4oc(-c5cccc(OCC#N)c5)cc34)cn2)CC1`, 100 to 1000 nM.
The value for `CSc1ccccc1-c1cc2c(-c3cnn(C4CCN(C(C)=O)CC4)c3)cnc(N)c2o1` was 100 to 1000 nM; that for `CC(=O)N1CCC(n2cc(-c3cnc(N)c4oc(-c5ccc6occc6c5)cc34)cn2)CC1` was 100 to 1000 nM.
`CC(=O)N1CCC(n2cc(-c3cnc(N)c4oc(-c5csc6cncc(F)c56)cc34)cn2)CC1` came in with an IC50 of 100 to 1000 nM.
To `CC(=O)N1CCC(n2cc(-c3cnc(N)c4oc(-c5ccc(O)cc5C)cc34)cn2)CC1` belongs 100 to 1000 nM.
